Measured values: patent publication US5849701A, “Peptide inhibitors of fibronectin and related collagen-binding proteins” (The United States of America as represented by the …, priority 1995, dated 1998)
Where no end group is shown, it is not given here.

How the values were obtained:
fibronectin [1] = biological target: T1, fibronectin (Homo sapiens, UniProt P02751); assay: Inhibition of 125I-fibronectin binding to gelatin; conditions: 0.5 μg/ml 125I-fibronectin, 2 hours at 25° C.
Description: (§1) Wells of a microtiter plate were incubated for 3 hours at 25° C. with […] gelatin in Dulbecco's PBS. The wells were emptied and incubated with Dulbecco's PBS containing 1% BSA for 30 minutes. The wells were emptied and incubated with 0.5 μg/ml ^125 I-fibronectin in the presence of peptide GlyGlyTrpSerHisTrp (SEQ ID NO: 1) (.circle-solid.); GlyGlyTrpSerLysTrp (SEQ ID NO: 9) (.tangle-solidup.); GlyGlyTyrSerHisTrp (SEQ ID NO: 10) (.box-solid.); or GlyGlyTrpSerHisTyr (SEQ ID NO: 11) (.tangle-soliddn.) for 2 hours at 25° C. The wells were washed 4 times with PBS, cut from the plate and the bound radioactivity was counted.

fibronectin [2] = biological target: T1, fibronectin; assay: Inhibition of fibronectin binding to immobilized native type I collagen
Description: as §1
A ligand binding assay as described in Example 5 was performed except that microtiter plates were coated with immobilized native type I collagen in place of gelatin.

fibronectin [3] = biological target: T1, fibronectin; assay: Inhibition of 125I-fibronectin binding to immobilized peptide GlyGlyTrpSerHisTrp; conditions: wells coated with 50 μg/ml peptide; 0.5 μg/ml 125I-fibronectin
Description: Microtiter plate wells were coated with 50 μg/ml of peptide GlyGlyTrpSerHisTrp (SEQ ID NO: 1) as in Example 1. Binding of ^125 I-fibronectin (0.5 μg/ml) to bound peptide was determined in the presence of increasing amounts of the peptides: FIG. 2A: the peptides are GlyGlyTrpSerHisTrp (SEQ ID NO: 1) (.circle-solid.); GlyGlyTrpSerLysTrp (SEQ ID NO: 9) (.tangle-solidup.); GlyGlyTyrSerHisTrp (SEQ ID NO: 10) (.box-solid.) and GlyGlyTrpSerHisTyr (SEQ ID NO: 11) (.tangle-soliddn.); FIG. 2B: GlyGlyTrpSerHisTrp (SEQ ID NO: 1) (-); GlyGlyTrpThrHisTrp (SEQ ID NO: 12) (.tangle-solidup.); GlyGlyTrpAlaHisTrp (SEQ ID NO: 13) (.box-solid.); GlyTrpSerHisTrp (SEQ ID NO: 14) (+); AlaAlaTrpSerHisTrp (SEQ ID NO: 21) (.tangle-soliddn.); and AspGlyTrpSerHisTrp (SEQ ID NO: 22) (.quadrature.).
Binding of ^125 1-fibronectin (0.5 μg/ml) to microtiter plate wells coated with 50 μg/ml of peptide GlyGlyTrpSerHisTrp (SEQ ID NO: 1) was determined in the presence of synthetic peptide GlyGlyTrpSerHisTrp (SEQ ID NO: 1), fibronectin or thrombospondin.
Microtiter plates were coated with 50 μg/ml of synthetic peptide GlyGlyTrpSerHisTrp (SEQ ID NO: 1) as described in Example 1. Binding of 125I-fibronectin (0.5 μg/ml) to the bound peptide was determined in the presence of proteolytic fragments of fibronectin, which were obtained from Telios Pharmaceuticals, Inc. San Diego, Calif. The proteolytic fragments included intact fibronectin; 30 kDa gelatin-binding domain; 33 kDa recombinant cell binding domain; 28 kDa recombinant cell binding domain and transferrin.

fibronectin [4] = biological target: T1, fibronectin; assay: Direct binding of 125I-fibronectin to immobilized peptides
Description: Fibronectin was isolated from platelet-depleted plasma as described (Ariyama, et al. 1985, J. Biol. Chem. 260:4492-4500) and iodinated using Iodogen (Pierce Chemical Co., Rockford, Ill.) as described (Roberts, et al. 1987, J. Cell. Biol. 104:131-139).
Direct binding of the fibronectin to immobilized peptides was carried out by first absorbing the peptides on polyvinyl chloride microtiter wells for 3 hours at 25° C. at the indicated concentrations. Unbound peptides were removed by washing and wells were incubated for 30 minutes in tris-BSA (50 mM tris-HCl, pH7-8, 110 mm NaCl, 1% BSA) (Sigma fatty acid and globulin-free, 0.1% NaN3). The wells were washed and incubated with […] of 0.5 μg/ml ^125 I-fibronectin for 2 hours at 25° C. The wells were washed five times with Dulbecco's phosphate buffered saline and cut from the plate and bound radioactivity was counted.
The peptides listed in Table 1 were synthesized as described above and absorbed to microtiter wells. […] This peptide sequence is located in the second type I repeat of the human-ThbsI gene.

T1 sequence (P02751 32-2477): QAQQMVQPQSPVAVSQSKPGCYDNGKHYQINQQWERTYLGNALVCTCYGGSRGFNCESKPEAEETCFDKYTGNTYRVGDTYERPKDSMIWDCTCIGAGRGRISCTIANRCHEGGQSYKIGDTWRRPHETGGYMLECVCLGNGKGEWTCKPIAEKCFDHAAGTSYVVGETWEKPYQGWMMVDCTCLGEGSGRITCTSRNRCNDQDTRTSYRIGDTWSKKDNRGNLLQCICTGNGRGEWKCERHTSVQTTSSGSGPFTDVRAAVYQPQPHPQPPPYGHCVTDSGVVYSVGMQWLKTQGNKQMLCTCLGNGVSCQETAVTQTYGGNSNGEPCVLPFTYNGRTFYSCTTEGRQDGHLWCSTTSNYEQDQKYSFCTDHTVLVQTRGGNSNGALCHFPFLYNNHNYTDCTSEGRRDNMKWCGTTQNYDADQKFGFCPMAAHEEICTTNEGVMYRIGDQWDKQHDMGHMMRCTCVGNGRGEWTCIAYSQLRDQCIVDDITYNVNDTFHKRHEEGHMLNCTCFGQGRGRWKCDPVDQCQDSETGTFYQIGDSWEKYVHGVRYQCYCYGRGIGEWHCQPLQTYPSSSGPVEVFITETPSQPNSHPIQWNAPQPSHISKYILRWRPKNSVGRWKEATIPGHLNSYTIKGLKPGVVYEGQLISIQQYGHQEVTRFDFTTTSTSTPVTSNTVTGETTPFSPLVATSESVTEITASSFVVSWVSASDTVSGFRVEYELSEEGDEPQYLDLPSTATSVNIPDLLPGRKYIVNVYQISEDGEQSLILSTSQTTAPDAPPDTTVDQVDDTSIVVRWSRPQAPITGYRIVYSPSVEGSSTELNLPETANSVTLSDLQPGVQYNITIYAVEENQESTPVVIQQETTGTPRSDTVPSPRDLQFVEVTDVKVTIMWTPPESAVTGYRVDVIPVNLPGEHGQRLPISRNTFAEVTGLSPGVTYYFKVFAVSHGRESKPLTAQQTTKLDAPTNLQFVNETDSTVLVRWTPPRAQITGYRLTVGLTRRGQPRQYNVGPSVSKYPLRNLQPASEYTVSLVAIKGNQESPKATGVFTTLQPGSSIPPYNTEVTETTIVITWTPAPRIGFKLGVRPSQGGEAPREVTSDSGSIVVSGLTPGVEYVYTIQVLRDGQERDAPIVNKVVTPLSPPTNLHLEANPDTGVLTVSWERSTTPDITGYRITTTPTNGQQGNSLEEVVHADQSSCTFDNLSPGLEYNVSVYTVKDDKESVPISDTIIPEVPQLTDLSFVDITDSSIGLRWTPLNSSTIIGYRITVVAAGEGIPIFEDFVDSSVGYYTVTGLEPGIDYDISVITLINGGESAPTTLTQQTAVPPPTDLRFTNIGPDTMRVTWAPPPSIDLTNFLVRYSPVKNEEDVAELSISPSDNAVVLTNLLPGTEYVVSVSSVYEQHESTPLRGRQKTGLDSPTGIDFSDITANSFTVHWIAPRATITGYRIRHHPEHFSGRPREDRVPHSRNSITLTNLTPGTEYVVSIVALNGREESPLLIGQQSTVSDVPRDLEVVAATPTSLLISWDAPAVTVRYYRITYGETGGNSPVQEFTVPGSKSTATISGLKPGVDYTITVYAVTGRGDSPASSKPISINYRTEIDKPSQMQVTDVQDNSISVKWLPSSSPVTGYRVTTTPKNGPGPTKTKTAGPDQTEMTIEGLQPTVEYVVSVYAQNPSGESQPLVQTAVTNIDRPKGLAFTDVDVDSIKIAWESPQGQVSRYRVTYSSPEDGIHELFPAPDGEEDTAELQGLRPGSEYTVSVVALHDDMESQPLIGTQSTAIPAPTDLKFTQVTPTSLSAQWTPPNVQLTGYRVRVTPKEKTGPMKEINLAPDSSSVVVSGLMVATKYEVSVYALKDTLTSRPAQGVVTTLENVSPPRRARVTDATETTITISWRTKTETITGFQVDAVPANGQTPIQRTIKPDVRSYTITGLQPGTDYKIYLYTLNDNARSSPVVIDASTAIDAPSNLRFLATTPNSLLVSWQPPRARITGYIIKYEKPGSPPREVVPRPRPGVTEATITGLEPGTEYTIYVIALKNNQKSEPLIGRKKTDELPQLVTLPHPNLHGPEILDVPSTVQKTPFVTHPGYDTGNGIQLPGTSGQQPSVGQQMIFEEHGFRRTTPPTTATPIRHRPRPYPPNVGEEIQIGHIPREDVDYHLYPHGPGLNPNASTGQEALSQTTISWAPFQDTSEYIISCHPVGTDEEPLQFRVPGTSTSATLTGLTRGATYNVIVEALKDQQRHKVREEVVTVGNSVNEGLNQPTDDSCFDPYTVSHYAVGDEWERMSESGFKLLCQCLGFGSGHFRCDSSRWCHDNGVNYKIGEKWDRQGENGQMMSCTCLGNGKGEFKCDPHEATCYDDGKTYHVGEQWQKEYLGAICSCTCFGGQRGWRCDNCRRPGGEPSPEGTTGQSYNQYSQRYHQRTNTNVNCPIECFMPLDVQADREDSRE

Molecule	inhibition of fibronectin binding to type I collagen (in words) (fibronectin [2])	inhibition of fibronectin binding to immobilized peptide GlyGlyTrpSerHisTrp (in words) (fibronectin [3])	other results
GGWSKW [GlyGlyTrpSerLysTrp]	inactive	inactive	inhibition of fibronectin binding to gelatin (in words) (fibronectin [1]): inactive
GGWSHY [GlyGlyTrpSerHisTyr]	inactive	inactive	inhibition of fibronectin binding to gelatin (in words) (fibronectin [1]): inactive
DGWSPW [Peptide 317, DGWSPW]			binding of fibronectin to peptide (in words) (fibronectin [4]): inactive
GGWSHW [Peptide 300, GGWSHW]			IC50 (fibronectin [2]): 40 µM; IC50 (fibronectin [3]): 27 µM
GGWGPW [Peptide 318, GGWGPW]			binding of fibronectin to peptide (in words) (fibronectin [4]): inactive
transferrin [reference compound]			IC50 for competition of 125I-fibronectin binding to peptide GlyGlyTrpSerHisTrp (fibronectin [3]): > 200 µg/mL
thrombospondin: Human platelet thrombospondin, purified		competed	
fetuin: control protein [reference compound]			IC50 for competition of 125I-fibronectin binding to peptide GlyGlyTrpSerHisTrp (fibronectin [3]): > 200 µg/mL
WSHWSP [Peptide 292, WSHWSP]	inactive		
ovalbumin: control protein (protein, UniProt P01012 2-386, looked up) Ovalbumin: GSIGAASMEFCFDVFKELKVHHANENIFYCPIAIMSALAMVYLGAKDSTRTQINKVVRFDKLPGFGDSIEAQCGTSVNVHSSLRDILNQITKPNDVYSFSLASRLYAEERYPILPEYLQCVKELYRGGLEPINFQTAADQARELINSWVESQTNGIIRNVLQPSSVDSQTAMVLVNAIVFKGLWEKAFKDEDTQAMPFRVTEQESKPVQMMYQIGLFRVASMASEKMKILELPFASGTMSMLVLLPDEVSGLEQLESIINFEKLTEWTSSNVMEERKIKVYLPRMKMEEKYNLTSVLMAMGITDVFSSSANLSGISSAESLKISQAVHAAHAEINEAGREVVGSAEAGVDAASVSEEFRADHPFLFCIKHIATNAVLFFGRCVSP			IC50 for competition of 125I-fibronectin binding to peptide GlyGlyTrpSerHisTrp (fibronectin [3]): > 200 µg/mL

The next lines start with results.

inhibition of fibronectin binding to type I collagen (in words) (fibronectin [2])	inhibition of fibronectin binding to immobilized peptide GlyGlyTrpSerHisTrp (in words) (fibronectin [3])	Molecule	other results
inactive	inactive	GGYSHW [GlyGlyTyrSerHisTrp]	inhibition of fibronectin binding to gelatin (in words) (fibronectin [1]): inactive
inactive		GGWTHW [GlyGlyTrpThrHisTrp]	
	competed	fibronectin	
inactive		AAWSHW [AlaAlaTrpSerHisTrp]	
inactive		DGWSHW [AspGlyTrpSerHisTrp]	
